According to US20050209157A1, “Short bioactive peptides and methods for their use” (priority 2001, published 2005):
≈ marks a conversion by molar mass, not a printed value. Read-outs that look alike come from different tables or passages of the source. Non-standard residues stand in square brackets, D forms with d. Residues, ends and D or L forms follow the SMILES beside them. No end group written: not given here.

Tests used:
[1] = tested on: yeast (Saccharomyces cerevisiae); assay: Antimicrobial assay I, yeast assay in RPMI 1640; format: cell-based; conditions: RPMI 1640 media
[2] = tested on: WI38; conditions: MTT, 24 hours with peptide; normal fibroblast line
Description: (§3) Viability of cells is determined by the dye response. In the following procedure, approximately 1.5×10^4 cells per well were added and viability was determined with the cells in a semi-confluent state. The assay was performed in a 96-well microtiter plate. After addition of peptide, the plate was set for 24 hours. MTT (5 mg/ml in phenol red-free RPMI-1640, 20 μl) was added to each well including positive control wells untreated with peptide. The plate was incubated at 37° C. for 4 hours. The liquid contents of each well was removed, and isopropanol with 0.1 M HCl (100 μl) was added to each well. The plate was sealed with parafilm to prevent evaporation of the isopropanol. The plate is allowed to rest for 5-10 minutes in order to solubilize the precipitate. Purified water (100 μl) was added to each well. Absorbance was determined with an ELISA Reader instrument. Color intensity at 540 nm is proportional to viability of cells.
(§4) WI38 (ATCC No. CCL75) is a normal fibroblast line of lung diploid cells, MCF7 (ATCC No. HTB22) is a breast adenocarcinoma tumor cell line, SW480 (ATCC No. CCL228) is a colon adenocarcinoma tumor cell line, BMKC is a cloned melanoma line derived from Bowes melanoma line HMCB (ATCC No. CRL9607), H1299 (ATCC No. CRL5803) is a lung large cell carcinoma tumor line, HeLaS3 (ATCC No. CCL2.2) is a cervical epitheleal carcinoma tumor cell line, and PC3 (ATCC No. CRL1435) is a prostate adenocarcinoma tumor cell line.

[3] = tested on: PC3; assay: Anti-cancer assay, MTT, LD50; format: cell-based; conditions: 24 hours with peptide, prostate adenocarcinoma
From the text: (§1) Numbers are LD50 values (μg/mL).

[4] = tested on: H1299; assay: Anti-cancer assay, MTT, LD50; format: cell-based; conditions: 24 hours with peptide, lung large cell carcinoma
From the text: as §1

[5] = tested on: BMKC; assay: Anti-cancer assay, MTT, LD50; format: cell-based; conditions: BMKC cloned melanoma line, 24 hours with peptide
From the text: as §1

[6] = tested on: HeLaS3; assay: Anti-cancer assay, MTT, LD50; format: cell-based; conditions: 24 hours with peptide, cervical carcinoma
From the text: as §1

[7] = tested on: MCF7; assay: Anti-cancer assay, MTT, LD50; format: cell-based; conditions: MCF7 breast adenocarcinoma line, MTT, 24 hours with peptide
From the text: as §1

[8] = tested on: SW480; assay: Anti-cancer assay, MTT, LD50; format: cell-based; conditions: SW480 colon adenocarcinoma line, 24 hours with peptide
From the text: as §1

[9] = tested on: S. pneumoniae C719; assay: Antimicrobial assays II, NCCLS broth microdilution MIC; format: cell-based, Streptococcus pneumoniae; conditions: mean of three, in µg/mL
[10] = tested on: S. pyogenes ATCC19615; assay: as above; format: cell-based, Streptococcus pyogenes; conditions: mean of three, in µg/mL
[11] = tested on: S. epidermidis C621; format: cell-based, Staphylococcus epidermidis; conditions: mean of three; 16 to 20 hours at 35° C.
[12] = tested on: P. aeruginosa; format: cell-based, Pseudomonas aeruginosa; set-up: key to FIC Index: FIC = 0.25 + MIC antibiotic in combination / MIC alone; ≤0.5 = synergy; conditions: P. aeruginosa H744; MIC of nalidixic acid with peptide at ¼ MIC
Procedure, shortened: (§2)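 FIC index, computed as 0.25 plus the ratio of combination to single-agent antibiotic MIC, defines synergy when 0.5 or below. Peptide fixed at one quarter MIC while chloramphenicol or nalidixic acid was serially diluted two-fold; antibiotic-alone MICs served as baselines.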

[13] = tested on: P. aeruginosa H774; format: cell-based, Pseudomonas aeruginosa; set-up: key to FIC Index: FIC = 0.25 + MIC antibiotic in combination / MIC alone; ≤0.5 = synergy; conditions: P. aeruginosa H744; nalidixic acid + peptide at ¼ MIC; 0.5 or less = synergy
Procedure, shortened: as §2

[14] = tested on: P. aeruginosa H374; format: cell-based, Pseudomonas aeruginosa; set-up: key to FIC Index: FIC = 0.25 + MIC antibiotic in combination / MIC alone; ≤0.5 = synergy; conditions: for MIC Cm-comb.: MIC of chloramphenicol with peptide at ¼ MIC; for MIC Nal-comb.: MIC of nalidixic acid with peptide at ¼ MIC; for FIC Index: 0.5 or less = synergy
Procedure, shortened: as §2

[15] = in vitro; format: cell-based, human; conditions: human, human red blood cells, pH 7, hemolytic assay, concentration at 50% hemolysis, 1 hour at 37° C.; read-out: LD50
[16] = in vitro; conditions: human, WI38 normal lung fibroblast cells, LD50 WI38, WI38 normal lung fibroblast line, MTT, 24 hours with peptide
Description: as §3, §4

[17] = tested on: S. pyogenes M76; assay: Antimicrobial assays II, NCCLS broth microdilution MIC; format: cell-based, Streptococcus pyogenes; conditions: mean of three; 16 to 20 hours at 35° C.
[18] = tested on: S. pneumoniae C718; assay: as above; format: cell-based, Streptococcus pneumoniae; conditions: mean of three
[19] = tested on: Staphylococcus aureus ATCC 6538; assay: Antimicrobial assay I, MIC by OD measurement; format: cell-based; conditions: 37° C. for 24 hours, absorbance 620 nm
[20] = tested on: Pseudomonas aeruginosa ATCC 9027; assay: Antimicrobial assay I, MIC by OD measurement; format: cell-based; conditions: 37° C. for 24 hours, absorbance 620 nm
[21] = tested on: P. acne ATCC 6919; assay: Antimicrobial assays II, NCCLS broth microdilution MIC; format: cell-based, Propionibacterium acnes; conditions: mean of three, in µg/mL
[22] = tested on: S. aureus (MRSA); format: cell-based, Staphylococcus aureus; conditions: mean of three; 16 to 20 hours at 35° C.
[23] = chloramphenicol + peptide at ¼ MIC
[24] = nalidixic acid + peptide at ¼ MIC, FIC=0.25+MIC comb/MIC alone

Compound | yeast (MIC or MFC) [1] | PC3 LD50 [3] [µg/mL] | H1299 LD50 [4] [µg/mL] | LD50 BMKC [5] [µg/mL] | LD50 MCF7 [7] [µg/mL] | S. pneumoniae MIC [9] | S. pyogenes MIC [10] | S. epidermidis C621 MIC [11] [µg/mL] | MIC Nal-comb. [12] [µg/mL] | FIC Index [13] | MIC Cm-comb. [14] [µg/mL] | MIC Nal-comb. [14] [µg/mL] | FIC Index [14, 23] | FIC Index [14, 24] | S. pyogenes M76 MIC [17] [µg/mL] | S. pneumoniae MIC [18] [µg/mL] | staph6538 (MIC) [19] | paerug9027 (MIC) [20] | P. acne MIC [21] | S. aureus (MRSA) MIC [22] [µg/mL] | further results
FALAAKALKKLAKKLKKLAKKAL-NH2 [P23] | 100 µg/mL | 41 | 64 | 27 | 62 | 16 | 8 | 16 | 624 | 1.25 | 8 | 2500 | 0.75 | 0.75 | 16 | 16 | 5 µg/mL | 50 µg/mL | 4 | 32 | WI38 LD50 [2]: 34 µg/mL; HeLaS3 LD50 [6]: 82 µg/mL; LD50 SW480 [8]: 5 µg/mL; HC50 at 1 h [15]: 300 µg/mL; CC50 at 24 h [16]: 34 µg/mL
VAKKLAKLAKKLAKLAL-NH2 [P50] | 50 µg/mL | 54 | 7 | 40 | 32 | 16 | 4 | 4 | 624 | 1.25 | 16 | 5000 | 1.25 | 1.25 | 8 | 32 | 5 µg/mL | 15 µg/mL | 4 | 4 | HeLaS3 LD50 [6]: 33 µg/mL; LD50 SW480 [8]: 46 µg/mL
FAKALKALLKALKAL-NH2 [P64] | 200 µg/mL | 46 | 30 | 35 | 80 | 2 | 4 | 4 | 624 | 1.25 | 16 | 5000 | 1.25 | 1.25 | 4 | 8 | 5 µg/mL | > (> indicates greater than 200 μg/mL) | 2 | 8 | HeLaS3 LD50 [6]: 30 µg/mL
FAKKLAKKLL-NH2 [P59] | > (> indicates greater than 200 μg/mL) | 81 | 180 | 155 | 31 | 4 | 2 | 8 | 624 | 1.25 | 8 | 2500 | 0.75 | 0.75 | 2 | 16 | > (> indicates greater than 200 μg/mL) | > (> indicates greater than 200 μg/mL) | 2 | 8 | WI38 LD50 [2]: 77 µg/mL; LD50 SW480 [8]: 42 µg/mL; HC50 at 1 h [15]: 1000 µg/mL; CC50 at 24 h [16]: 77 µg/mL
KYKKALKKLAKLL-NH2 [P146] | 50 µg/mL | 440 | 93 | 185 | 110 | 128 | 8 | 8 | 624 | 1.25 | 4 | 625 | 0.5 | 0.375 | 8 | > 128 | 10 µg/mL | 10 µg/mL | 16 | 16 | WI38 LD50 [2]: 270 µg/mL; HeLaS3 LD50 [6]: 640 µg/mL; LD50 SW480 [8]: 380 µg/mL; HC50 at 1 h [15]: 180 µg/mL; CC50 at 24 h [16]: 270 µg/mL
FAKLLAKLAKKVL-NH2 [P124] | 100 µg/mL | 10 | 30 | 10 | 18 | 64 | 16 | 4 | 624 | 1.25 | 16 | 2500 | 1.25 | 0.75 | 16 | > 128 | 5 µg/mL | 100 µg/mL | 8 | 8 | WI38 LD50 [2]: 21 µg/mL; HeLaS3 LD50 [6]: 14 µg/mL; LD50 SW480 [8]: 9 µg/mL; HC50 at 1 h [15]: 55 µg/mL; CC50 at 24 h [16]: 21 µg/mL
GIGKFLKKAKKFGKAFVKILKK-NH2 [P42, reference compound] | 200 µg/mL | 66 | 150 | 140 | 31 | 8 | 4 | 2 | 624 | 1.25 | 16 | 5000 | 1.25 | 1.25 | 4 | 32 | 10 µg/mL | > (> indicates greater than 200 μg/mL) | 2 | 16 | LD50 SW480 [8]: 34 µg/mL
CC(C)C[C@H](NC(=O)[C@H](C)NC(=O)[C@H](CCCCN)NC(=O)[C@H](CCCCN)NC(=O)[C@H](CC(C)C)NC(=O)[C@H](C)NC(=O)[C@H](CCCCN)NC(=O)[C@H](CCCCN)NC(=O)[C@H](CC(C)C)NC(=O)[C@@H](CCCCN)NC(=O)[C@@H](CCCCN)NC(=O)[C@H](CC(C)C)NC(=O)[C@H](C)NC(=O)[C@H](CCCCN)NC(=O)[C@H](CCCCN)NC(=O)[C@H](CC(C)C)NC(=O)[C@H](C)NC(=O)[C@H](CCCCN)NC(=O)[C@H](CC(C)C)NC(=O)[C@H](C)NC(=O)[C@H](CC(C)C)NC(=O)[C@H](C)NC(=O)[C@@H](N)Cc1ccccc1)C(=O)O [P37, FALALKALKKAL-(D)-K-(D)-KLKKALKKAL-COOH] (H-FALALKALKKAL[dK][dK]LKKALKKAL-OH; N-terminus assumed) | 50 µg/mL | 64 | 150 | 150 | 14 | 16 | 8 | 4 | 624 | 1.25 | 4 | 2500 | 0.5 | 0.75 | 8 | 64 | 5 µg/mL | 100 µg/mL | 4 | 8 | WI38 LD50 [2]: 80 µg/mL; LD50 SW480 [8]: 57 µg/mL; HC50 at 1 h [15]: 30 µg/mL; CC50 at 24 h [16]: 80 µg/mL (≈ 31.5 µM)
